Here are results for 87 compounds from PubChem BioAssay AID1645848.

What is called kinetic solubility is solubility judged after dilution from a stock solution rather than from solid.

The conditions of this data set: buffer; pH 7.4; 6.0 h; 150.0 µM.

Values after ≈ are worked out from the molar mass of the structure shown.

Regarding `COc1ccc(Nc2ncc(C(=O)Nc3cccc(Cl)c3)c3ccccc23)cc1`, the solubility (kinetic) is below 1 µg/mL.

`CC(=O)c1c(C)[nH]c(C(=O)Nc2cccc(S(=O)(=O)Nc3cccc(C#N)c3)c2)c1C` came in with a kinetic solubility of 21 µg/mL (≈ 48.2 µM).

On to `CCOP(=O)(Cc1ccc(C(=O)Nc2ccc(Br)cc2C#N)cc1)OCC`, for which the solubility (kinetic) was determined as 14.9 µg/mL (≈ 33.1 µM).

With `Cn1c2ccccc2c(=O)c2c(=O)n(-c3ccccc3)c(C3CCCCC3)nc21`, the solubility (kinetic) was below 1 µg/mL.

`Cc1ccc2[nH]c(-c3ccccc3)cc(=O)c2c1` returned a solubility (kinetic) of 3.41 µg/mL (≈ 14.5 µM).

Take `O=C(Nc1ccc(N2CCN(c3ncccc3C(F)(F)F)CC2)nc1)c1cccs1`: the solubility (kinetic) is below 1 µg/mL.

As for `COc1cccc(CNC(=O)c2ccc(N3CCCC3)c(NC(=O)Nc3ccccc3F)c2)c1`, the kinetic solubility was below 1 µg/mL.

On to `O=S(=O)(Nc1nc2ccccc2s1)c1ccc(NCc2cccc(Cl)c2O)cc1`, for which the kinetic solubility worked out at 1.1 µg/mL (≈ 2.46 µM).

`Cn1cc(-c2nc(Nc3ccc(F)c(F)c3)c3ccccc3n2)cn1` showed a kinetic solubility below 1 µg/mL.

As for `O=C(NCc1ccccc1)C1CCN(c2nc(-c3ccc(Br)cc3)cs2)CC1`, the solubility (kinetic) came to 2.48 µg/mL (≈ 5.43 µM).

For the compound `CCc1cc(Cl)c(OC)c(C(=O)NC[C@@H]2CCCN2CC)c1O.Cl`, the kinetic solubility stood at 27.3 µg/mL.

`O=C(Nc1ccccc1)C1CCN(c2ncc(-c3ccc4c(c3)OCCCO4)s2)CC1` showed a kinetic solubility below 1 µg/mL.

The compound `COC(C)(C)CCn1nc(Nc2c(C)cccc2C)c2cnc(Nc3ccc(OCCN4CCCC4)c(F)c3)nc21` showed a solubility (kinetic) of 28.3 µg/mL (≈ 50.3 µM).

Consider `CN(C)c1ccc(S(=O)(=O)N2CCCCC2)cc1NS(=O)(=O)c1ccc2ccccc2c1`, for which the solubility (kinetic) was determined as 2.05 µg/mL (≈ 4.33 µM).

With `Cn1cnc(S(=O)(=O)Nc2cnccc2C(=O)Nc2nc(-c3ccccc3)cs2)c1`, the kinetic solubility was above 65 µg/mL.

As for `O=C(Nc1nc(-c2ccccc2)cs1)c1ccncc1NS(=O)(=O)c1ccc(C(F)(F)F)cc1`, the kinetic solubility is below 1 µg/mL.

For the compound `CC(C)c1ccc(CC(=O)N2CCCc3ncc(C(=O)Nc4cccnc4)cc32)cc1`, the solubility (kinetic) was 27.7 µg/mL (≈ 66.9 µM).

Take `CCc1ccc(-n2nnc(-c3nsc(NC(=O)c4ccccc4Cl)n3)c2C)cc1`: the kinetic solubility is below 1 µg/mL.

As to `O=C(Nc1ccc2c(N3CCOCC3)ncnc2c1)c1cccc(Br)c1`, the solubility (kinetic) amounted to 9.48 µg/mL (≈ 22.9 µM).

Turning to `COc1cccc(C(=O)Nc2nc(-c3nnn(-c4cc(C)ccc4C)c3C)ns2)c1`, the solubility (kinetic) was found to be 1.2 µg/mL (≈ 2.86 µM).

Regarding `CC(C)c1ccccc1-c1ncc(F)c(NCc2ccc(-n3ccnn3)cc2)n1`, the kinetic solubility came out at 2.13 µg/mL (≈ 5.49 µM).

As for `COc1ccc(C(=O)Nc2nc(-c3ccccc3)cs2)cc1NS(=O)(=O)c1ccc(C)cc1`, the solubility (kinetic) was below 1 µg/mL.

The compound `COc1cc(C2CC(=O)Nc3cc4c(cc32)OCCO4)cc(Br)c1OC` (configuration not stated) displayed a kinetic solubility below 1 µg/mL.

With `C[C@H]1CN(C(=O)c2nn(C)c3ccccc23)C[C@@H]1c1nc(-c2cccnc2)no1`, the kinetic solubility was found to be 19.7 µg/mL (≈ 50.6 µM).

`Cc1ccc(-c2cc(C(=O)Nc3cccc(S(N)(=O)=O)c3)c3ccccc3n2)cc1C` came in with a solubility (kinetic) below 1 µg/mL.

`O=C1CCCC2=C1C(c1[nH]ncc1Cl)N=C(Nc1nc3cc(F)ccc3o1)N2` (configuration not stated) came in with a kinetic solubility of 3.16 µg/mL (≈ 7.87 µM).

As to `CC(C)(C)n1nc(-c2ccc(Cl)cc2)c2c(N)ncnc21`, the solubility (kinetic) was below 1 µg/mL.

As to `CC(C)n1cc(-c2ccc(Oc3ccccc3)cc2)c2c(N)ncnc21`, the kinetic solubility was below 1 µg/mL.

For `COc1cccc(CNc2ccc(S(=O)(=O)Nc3cccc(N4CCNCC4)c3)cc2)c1O`, the solubility (kinetic) stood at 51.1 µg/mL (≈ 109 µM).

Take `Cn1ccc2c(C(=O)NCC3CCC(=O)N3)nc(-c3ccccc3C#N)cc21` (configuration not stated): the kinetic solubility was 52.4 µg/mL (≈ 140 µM).

Compound `Cc1sc2ncnc(Sc3nnnn3-c3ccccc3)c2c1-c1ccccc1` yielded a solubility (kinetic) of 0.29 µg/mL (≈ 0.72 µM).

Take `CCCCCOc1ccccc1/C(=C\SC)n1ccnc1`: the solubility (kinetic) was below 1 µg/mL.

For `CCN1C(=O)c2ccccc2[S@](=O)c2ccc(C(=O)NCc3ccc(C#N)cc3)cc21`, the solubility (kinetic) stood at 29.4 µg/mL (≈ 68.5 µM).

For `Cc1ccc(S(=O)(=O)Nc2cccnc2C(=O)Nc2nc(-c3ccccc3)cs2)cc1`, the solubility (kinetic) was below 1 µg/mL.

`O=C(NCCCn1ccnc1)c1ccc(-c2ncc3cnc(-c4cccc(F)c4)cn23)cc1` had a kinetic solubility of 32.5 µg/mL (≈ 73.9 µM).

`Clc1cccc(COc2cncc(N3CCNCC3)n2)c1`: the kinetic solubility was above 45 µg/mL.

In the case of `O=S(=O)(Nc1ccc(-c2cccnc2)c2cccnc12)c1cccc(C(F)(F)F)c1`, the solubility (kinetic) was below 1 µg/mL.

As to `Fc1ccccc1CNCc1ccc(-c2ccnc3[nH]ccc23)cc1`, the kinetic solubility is 13.2 µg/mL (≈ 39.8 µM).

Compound `CC1(C)CCC(c2ccc(Cl)cc2)=C(CN2CCN(c3ccc(C(=O)NS(=O)(=O)c4ccc(N[C@H](CCN5CCOCC5)CSc5ccccc5)c(S(=O)(=O)C(F)(F)F)c4)cc3)CC2)C1` showed a solubility (kinetic) below 1 µg/mL.

Compound `CCOc1ccc(OCC)c(NC(=O)C(NS(=O)(=O)c2ccc(Br)s2)c2ccccc2)c1` (configuration not stated) displayed a solubility (kinetic) below 1 µg/mL.

For the compound `COc1cccc(CNc2ccc(S(=O)(=O)Nc3ccc(C4CCNCC4)cc3)cc2)c1O`, the kinetic solubility stood at 58.4 µg/mL (≈ 125 µM).

The compound `Fc1cc(Nc2nc(-c3ccncc3)nc3ccccc23)ccc1OCC(F)(F)F` showed a kinetic solubility below 1 µg/mL.

Compound `C[C@H]1CCC[C@H](O)CCC/C=C/c2cc(O)cc(O)c2C(=O)O1` showed a solubility (kinetic) of 17.1 µg/mL (≈ 53.2 µM).

On to `O=C(Cc1ccc(O)cc1)N1CC(CNc2ccccc2)C2(C1)CN(c1ccccc1)C2` (configuration not stated), for which the solubility (kinetic) is below 1 µg/mL.

As to `CC(=O)c1c(C)c(C(=O)Nc2cccc([S+](=O)([O-])N(C)C)c2)n(C)c1C`, the kinetic solubility was 33.2 µg/mL (≈ 88 µM).

In turn, `COC(=O)c1ccnc(-c2cc(C(=O)NCCc3ccccc3)ccn2)c1` showed a kinetic solubility of 5.36 µg/mL (≈ 14.8 µM).

`Cc1cnc(-c2ccccc2C(C)C)nc1NCC1CCN(c2cccnc2)CC1`: the solubility (kinetic) was below 1 µg/mL.

For the compound `Oc1ccc(CNc2ccc(C(F)(F)F)cc2F)c2cccnc12`, the solubility (kinetic) is 6.45 µg/mL (≈ 19.2 µM).

As for `CCCN(CCC)CCc1cccc2c1CC(=O)N2`, the solubility (kinetic) amounted to 23.2 µg/mL (≈ 88.9 µM).

Consider `Cc1cc(NS(=O)(=O)c2ccc(C(=O)NCc3ccc(Cl)c(Cl)c3)cc2)no1`, for which the solubility (kinetic) was above 65 µg/mL.

With `CCC(=O)N1CCN(c2ccc(-n3c(=O)ccc4cnc5ccc(-c6cnc7ccccc7c6)cc5c43)cc2C(F)(F)F)CC1`, the kinetic solubility is below 1 µg/mL.

The compound `Cc1ccc(S(=O)(=O)Nc2cccc(C(=O)Nc3nc(-c4ccc(Cl)cc4)cs3)c2)cc1` came in with a solubility (kinetic) below 1 µg/mL.

Take `O=C(NCc1cccs1)c1cn2cc(-c3ccccc3)sc2n1`: the solubility (kinetic) is below 1 µg/mL.

In the case of `CCOc1ccc(NC(=O)c2cccc(-n3cccc3)c2)cc1S(=O)(=O)N1CCOCC1`, the solubility (kinetic) amounted to 3 µg/mL (≈ 6.59 µM).

In turn, `CCc1cccc(-n2nnc(-c3nsc(NC(=O)c4cccc(OC)c4)n3)c2C)c1` gave a kinetic solubility below 1 µg/mL.

On to `O=C(Nc1nc(-c2ccccc2)cs1)c1ccccc1[N+](=O)[O-]`, for which the kinetic solubility was below 1 µg/mL.

`CCc1ccccc1Nc1ncnc2c1cnn2-c1ccc(Cl)cc1` came in with a solubility (kinetic) below 1 µg/mL.

Compound `CNc1cc(-c2nc(Nc3ccc(F)c(F)c3)c3ccccc3n2)ccn1` had a kinetic solubility below 1 µg/mL.

Compound `Cc1ccccc1Nc1c(-c2ccccc2O)nc2sccn12` came in with a kinetic solubility below 1 µg/mL.

Turning to `CSc1cccc(NC(=O)CC[C@H]2O[C@@H]3O[C@]4(C)CC[C@H]5[C@H](C)CC[C@@H]([C@@H]2C)[C@@]35OO4)c1`, the kinetic solubility worked out at 1.2 µg/mL (≈ 2.6 µM).

`Cc1cc(Nc2nc(-c3ccncc3)nc3ccccc23)n[nH]1` came in with a kinetic solubility of 1.1 µg/mL (≈ 3.65 µM).

Turning to `Cc1cnccc1-c1nc(Nc2ccc(F)c(F)c2)c2ccccc2n1`, the solubility (kinetic) is 1.43 µg/mL (≈ 4.09 µM).

`CC1CCC(NC(=O)c2ccc3c(c2)N(Cc2ccccc2F)C(=O)c2ccccc2S3)CC1` (configuration not stated): the solubility (kinetic) stood at 1.06 µg/mL (≈ 2.24 µM).

With `C=Cc1ccc(Cn2c(C(=O)O)c(CNCc3ccccc3)c3ccc(OC)cc32)cc1`, the solubility (kinetic) came to 5.42 µg/mL (≈ 12.7 µM).

In turn, `Cc1ccc(S(=O)(=O)Nc2ccccc2C(=O)Nc2nc(-c3ccc(Cl)cc3)cs2)cc1` registered a solubility (kinetic) of 7.04 µg/mL (≈ 14.6 µM).

The compound `CC(C)(C)n1cnc2cc(C(=O)N3CCCCC3)ccc21` gave a kinetic solubility above 42 µg/mL.

The compound `Cc1cc(C)c(CNC(=O)c2nc(-c3ccc(CN(C)C)cc3)cc3c2ccn3C(C)C)c(=O)[nH]1` came in with a solubility (kinetic) of 40.3 µg/mL (≈ 85.4 µM).

`CCCN1CNc2c(c(=O)[nH]c(=S)n2CCc2cccc(Cl)c2Cl)C1` had a solubility (kinetic) of 13.4 µg/mL (≈ 33.6 µM).

Compound `COc1ccc(NC(=O)c2cccnc2)cc1S(=O)(=O)Nc1ccc(Br)cc1` yielded a solubility (kinetic) of 33.5 µg/mL (≈ 72.5 µM).

`CC(C)(O)CCc1ccc(OCc2cc(-c3cccc(OC(F)F)c3)c3ncccc3c2)cc1`: the kinetic solubility was below 1 µg/mL.

The compound `Cc1ccnc(N=C(N)N2CCN(c3cccc(C(F)(F)F)c3)CC2)c1` gave a kinetic solubility of 24.4 µg/mL (≈ 67.2 µM).

Turning to `Cc1cccc(C)c1NC(=O)c1nc(SC(C)C)ncc1Cl`, the solubility (kinetic) amounted to 1.22 µg/mL (≈ 3.64 µM).

`Clc1ccc2ncc(-c3cccc(NC4CCNC4)n3)n2c1` (configuration not stated): the kinetic solubility is above 46 µg/mL.

Compound `O=c1[nH]c(N2CCOCC2)nc2c1CCN(Cc1cc(Cl)ccc1F)CC2` showed a kinetic solubility of 28.6 µg/mL (≈ 72.7 µM).

With `Clc1ccccc1-c1nccc(-n2ccnc2)n1`, the solubility (kinetic) is 7.3 µg/mL (≈ 28.4 µM).

As for `CCCN1C(CC(C)C)=NS(=O)(=O)c2cc(NC(=O)c3cccs3)ccc21`, the kinetic solubility is below 1 µg/mL.

For the compound `COc1cccc(NC(=O)c2cc(-c3ccc(C)c(C)c3)nc3ccccc23)c1`, the solubility (kinetic) was below 1 µg/mL.

In turn, `O=C(NC1CCCc2c1[nH]c1ccccc21)c1ccccc1` (configuration not stated) came in with a kinetic solubility of 7.97 µg/mL (≈ 27.4 µM).

`Cc1cc(NS(=O)(=O)c2ccc(NC(=O)c3oc4ccccc4c3C)cc2)nc(C)n1` had a solubility (kinetic) below 1 µg/mL.

`COc1ccc(-c2nc3c(c(SCC(=O)Nc4ccc(C(=O)O)cc4)n2)Cc2ccccc2O3)cc1` gave a solubility (kinetic) of 1.45 µg/mL (≈ 2.9 µM).

On to `Cc1csc2nc(-c3cccc(NC(=O)c4ccccc4Cl)c3)cn12`, for which the kinetic solubility is below 1 µg/mL.

`O=c1[nH]nc(Sc2ncc([N+](=O)[O-])s2)n1-c1ccc2c(c1)OCCO2` showed a solubility (kinetic) of 28.7 µg/mL (≈ 75.6 µM).

`Cc1ccc(C)c(CN2CCC(CNC(=O)Nc3ccc(Br)cc3F)CC2)c1` gave a solubility (kinetic) of 27.9 µg/mL (≈ 62.3 µM).

In turn, `CS(=O)(=O)c1ccc(-c2nnc(/C=C/c3nnc(-c4ccc(C#N)cc4)o3)n2-c2ccccc2Cl)nc1` came in with a solubility (kinetic) of 4.17 µg/mL (≈ 7.86 µM).

Turning to `COC(=O)CSc1nc(-c2ccccc2)cc(-c2ccco2)c1C#N`, the solubility (kinetic) is below 1 µg/mL.

The compound `CCOc1ccc(CCNC(=O)c2cc3sccc3n2Cc2ccc(Cl)c(F)c2)cc1OCC` came in with a solubility (kinetic) below 1 µg/mL.

Turning to `Cc1ccc(-c2cc(C(=O)Nc3ccc(-c4nn[nH]n4)cc3)c3ccccc3n2)cc1C`, the solubility (kinetic) was found to be 7.58 µg/mL (≈ 18 µM).
